From patent publication US12029739B2, “SHP2 inhibitor and use thereof” (KANAPH THERAPEUTICS INC., priority 2021, dated 2024)

Tests used:
SHP2 (full length) = target: T1, SHP2 (full length) (Homo sapiens, UniProt Q06124); experiment: Phosphatase assay (PTPase assay) with DiFMUP substrate; assay type: biochemical; conditions: SHP2 activated with SHP2 activating peptide; DiFMUP 80 μM, 2 hours; fluorescence; read-out: IC50 (PTPase aS say)
T1 construct: SHP2 (full length, diluted to 100 pM final concentration in reaction buffer, BPS bioscience, US); purchased BPS bioscience, US
T1 sequence (Q06124 1-593): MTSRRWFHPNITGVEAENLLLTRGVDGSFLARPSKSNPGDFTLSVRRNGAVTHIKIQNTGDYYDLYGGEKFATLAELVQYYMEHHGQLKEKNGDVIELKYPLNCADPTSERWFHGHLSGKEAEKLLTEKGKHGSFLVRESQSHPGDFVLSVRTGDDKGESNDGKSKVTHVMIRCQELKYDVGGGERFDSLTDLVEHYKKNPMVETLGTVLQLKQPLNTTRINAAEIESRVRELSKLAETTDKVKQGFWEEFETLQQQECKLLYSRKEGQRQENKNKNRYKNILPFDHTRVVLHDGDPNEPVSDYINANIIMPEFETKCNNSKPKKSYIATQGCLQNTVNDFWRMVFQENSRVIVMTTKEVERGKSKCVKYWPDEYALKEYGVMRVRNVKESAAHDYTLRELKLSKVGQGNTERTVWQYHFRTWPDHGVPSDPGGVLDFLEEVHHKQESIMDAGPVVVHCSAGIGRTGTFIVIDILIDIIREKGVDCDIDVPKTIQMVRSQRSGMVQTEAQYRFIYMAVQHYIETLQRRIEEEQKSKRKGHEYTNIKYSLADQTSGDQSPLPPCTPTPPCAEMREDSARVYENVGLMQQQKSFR

[1] = test system: phospho-ERK in MIA PaCa2 or H358 cells; experiment: Phospho-ERK assay (AlphaLisa); assay type: cell-based; conditions: 1.5 h, MIA PaCa2 or H358 cells, compound incubated 1.5 hours; read-out: IC50 (p-ERK)

Row | IC50 (SHP2 (full length)) [nM] | IC50 [1] [nM] | Structure (SMILES)
1 | 3 to 100 | < 45 | C[C@@H]1OCC2(CCN(c3cnc(Sc4cccc(S(=O)(=O)NCc5ccccc5)c4Cl)cn3)CC2)[C@@H]1N [Example 10, 3-((5-((3S,4S)-4-amino-3-methyl-2-oxa-8-azaspiro[4.5]decan-8-yl)pyrazin-2-yl)thio)-N-benzyl-2-chlorobenzenesulfonamide]
2 | < 3 | 45 to 1500 | CC(c1ccccc1)n1cnc2ccc(Sc3cnc(N4CCC5(CC4)CO[C@@H](C)[C@H]5N)cn3)c(Cl)c2c1=O (stereo partly drawn) [Example 32, 6-((5-((3S,4S)-4-amino-3-methyl-2-oxa-8-azaspiro[4.5]decan-8-yl)pyrazin-2-yl)thio)-5-chloro-3-(1-phenylethyl)quinazolin-4(3H)-one]
3 | < 3 | < 45 | N[C@@H]1c2cccnc2CC12CCN(c1cnc(Sc3ccc4ncn(CCCO)c(=O)c4c3Cl)cn1)CC2 [Example 109]
4 | 3 to 100 | 45 to 1500 | N[C@H]1c2cccnc2CC12CCN(c1cnc(Sc3ccc4ncn(Cc5cccnc5)c(=O)c4c3Cl)cn1)CC2 [Example 106, (R)-6-((5-(5-amino-5,7-dihydrospiro[yclopenta[b]pyridine-6,4′-piperidin]-1′-yl)pyrazin-2-yl)thio)-5-chloro-(3-pyridin-3-ylmethyl)quinazolin-4(3H)-one]
5 | < 3 | < 45 | CC(C)(O)Cn1cnc2ccc(Sc3ncc(N4CCC5(CC4)Cc4scnc4[C@H]5N)nc3N)c(Cl)c2c1=O [Example 165, (S)-6-((3-amino-5-(4-amino-4,6-dihydrospiro[cyclopenta[d]thiazole-5,4′-piperidin]-1′-yl)pyrazin-2-yl)thio)-5-chloro-3-(2-hydroxy-2-methylpropyl)quinazolin-4(3H)-one]
6 | < 3 | < 45 | N[C@H]1c2ccccc2CC12CCN(c1cnc(Sc3ccc4ncn(CC5CCOC5)c(=O)c4c3Cl)cn1)CC2 (stereo partly drawn) [Example 104, 6-((5-((R)-1-amino-1,3-dihydrospiro(indene-2,4′-piperidin]-1′-yl]pyrazin-2-yl]thio)-5-chloro-3-((tetrahydrofuran-3-yl)methyl)quinazolin-4(3H)-one]
7 | < 3 | < 45 | COc1ccc(Cn2cnc3ccc(Sc4cnc(N5CCC6(CC5)CO[C@@H](C)[C@H]6N)cn4)c(Cl)c3c2=O)cc1F [Example 73, 6-((5-((3S,4S)-4-amino-3-methyl-2-oxa-8-azaspiro[4.5]decan-8-yl)pyrazin-2-yl)thio)-5-chloro-3-(3-fluoro-4-methoxybenzyl)quinazolin-4(3H)-one]
8 | < 3 | < 45 | C[C@@H]1OCC2(CCN(c3cnc(Sc4ccc5nn(C)cc5c4Cl)cn3)CC2)[C@@H]1N [Example 26, (3S,4S)-8-(5-((4-chloro-2-methyl-2H-indazol-5-yl)thio)pyrazin-2-yl)-3-methyl-2-oxa-8-azaspiro[4.5]decan-4-amine]
9 | < 3 | < 45 | N[C@@H]1c2cccnc2CC12CCN(c1cnc(Sc3ccc4ncn(CC5(F)COC5)c(=O)c4c3Cl)cn1)CC2 [Example 140, (S)-6-((5-(5-amino-5,7-dihydrospiro[yclopenta[b]pyridine-6,4′-piperidin]-1′-yl)pyrazin-2-yl)thio)-5-chloro-3-((3-fluorooxetan-3-yl)methyl)quinazolin-4(3H)-one]
10 | < 3 | < 45 | C[C@@H]1OCC2(CCN(c3cnc(Sc4ccc5ncn(Cc6ccc(N)nc6)c(=O)c5c4Cl)cn3)CC2)[C@@H]1N [Example 48, 6-((5-((3S,4S)-4-amino-3-methyl-2-oxa-8-azaspiro[4.5]decan-8-yl)pyrazin-2-yl)thio)-3-((6-aminopyridin-3-yl)methyl)-5-chloroquinazolin-4(3H)-one]
11 | < 3 | < 45 | CC(=O)Cn1cnc2ccc(Sc3cnc(N4CCC5(CC4)CO[C@@H](C)[C@H]5N)cn3)c(Cl)c2c1=O [Example 92, 6-((5-((3S,4S)-4-amino-3-methyl-2-oxa-8-azaspiro[4.5]decan-8-yl)pyrazin-2-yl)thio)-5-chloro-3-(2-oxopropyl)quinazolin-4(3H)-one]
12 | < 3 | < 45 | COC(C)Cn1cnc2ccc(Sc3cnc(N4CCC5(CC4)Cc4ncccc4[C@H]5N)cn3)c(Cl)c2c1=O (stereo partly drawn) [Example 142, 6-((5-((S)-5-amino-5,7-dihydrospiro[yclopenta[b]pyridine-6,4′-piperidin]-1′-yl)pyrazin-2-yl)thio)-5-chloro-3-(2-methoxypropyl)quinazolin-4(3H)-one]
13 | > 100 | > 1500 | Cn1c(N2CCCN(CCCN)CC2)nc(N)c(Sc2cccc(Cl)c2Cl)c1=O [Example 201, 6-amino-2-(4-(3-aminopropyl)-1,4-diazepan-1-yl)-5-((2,3-dichlorophenyl)thio)-3-methylpyrimidin-4(3H)-one]

Continued, compound first:

Row | Structure (SMILES) | IC50 (SHP2 (full length)) [nM] | IC50 [1] [nM]
14 | C[C@@H]1OCC2(CCN(c3cnc(Sc4ccc5c(c4Cl)S(=O)(=O)N(Cc4ccccc4)C=N5)cn3)CC2)[C@@H]1N [Example 124, 7-((5-((3S,4S)-4-amino-3-methyl-2-oxa-8-azaspiro[4,5]decan-8-yl)pyrazin-2-yl)thio)-2-benzyl-8-chloro-2H-benzo[e][1,2,4]thiadiazine 1,1-dioxide] | < 3 | < 45
15 | C[C@@H]1OCC2(CCN(c3cnc(Sc4ccc5ncn(CCN(C)C)c(=O)c5c4Cl)cn3)CC2)[C@@H]1N [Example 67, 6-((5-((3S,4S)-4-amino-3-methyl-2-oxa-8-azaspiro[4.5]decan-8-yl)pyrazin-2-yl)thio)-5-chloro-3-(2-(dimethylamino)ethyl)quinazolin-4(3H)-one] | 3 to 100 | 45 to 1500
16 | COc1ccc(C)cc1Cn1cnc2ccc(Sc3cnc(N4CCC5(CC4)CO[C@@H](C)[C@H]5N)cn3)c(Cl)c2c1=O [Example 93, 6-((5-((3S,4S)-4-amino-3-methyl-2-oxa-8-azaspiro[4.5]decan-8-yl)pyrazin-2-yl)thio)-5-chloro-3-(2-methoxy-5-methylbenzyl)quinazolin-4(3H)-one] | < 3 | < 45
17 | C[C@@H]1OCC2(CCN(c3cnc(Sc4ccc5ncn(CC6CCCO6)c(=O)c5c4Cl)cn3)CC2)[C@@H]1N (stereo partly drawn) [Example 62, 6-((5-((3S,4S)-4-amino-3-methyl-2-oxa-8-azaspiro[4.5]decan-8-yl)pyrazin-2-yl)thio)-5-chloro-3-((tetrahydrofuran-2-yl)methyl)quinazolin-4(3H)-one] | < 3 | < 45
18 | CC1(N)CCN(c2cnc(Sc3ccc4nc[nH]c(=O)c4c3Cl)cn2)CC1 [Example 4, 6-((5-(4-amino-4-methylpiperidin-1-yl)pyrazin-2-yl)thio)-5-chloroquinazolin-4(3H)-one] | 3 to 100 | 45 to 1500
19 | C[C@@H]1OCC2(CCN(c3cnc(Sc4ccc5ncn(CC6CCOC6)c(=O)c5c4Cl)cn3)CC2)[C@@H]1N (stereo partly drawn) [Example 61, 6-((5-((3S,4S)-4-amino-3-methyl-2-oxa-8-azaspiro[4.5]decan-8-yl)pyrazin-2-yl)thio)-5-chloro-3-((tetrahydrofuran-3-yl)methyl)quinazolin-4(3H)-one] | < 3 | < 45
20 | COCCn1cnc2ccc(Sc3cnc(N4CCC5(CC4)Cc4ncsc4[C@H]5N)cn3)c(Cl)c2c1=O [Example 144, 6-[5-[(6S)-6-aminospiro[4,6-dihydrocyclopenta[d]thiazole-5,4′-piperidin]-1′-yl]pyrazin-2-yl]sulfanyl-5-chloro-3-(2-methoxyethyl)quinazolin-4-one] | < 3 | < 45
21 | Cc1nc2ccc(Sc3cnc(N4CCC(C)(CN)CC4)cn3)c(Cl)c2c(=O)[nH]1 [Example 22, 6-((5-(4-(aminomethyl)-4-methylpiperidin-1-yl)pyrazin-2-yl)thio)-5-chloro-2-methylquinazolin-4(3H)-one] | 3 to 100 | 45 to 1500
22 | COC(C)Cn1cnc2ccc(Sc3ncc(N4CCC5(CC4)Cc4scnc4[C@H]5N)nc3N)c(Cl)c2c1=O (stereo partly shown) [Example 177] | < 3 | < 45
23 | COCCn1cnc2ccc(Sc3cnc(N4CCC5(CC4)Cc4ccc(O)cc4[C@H]5N)cn3)c(Cl)c2c1=O [Example 163, (S)-6-((5-(1-amino-6-hydroxy-1,3-dihydrospiro(indene-2,4′-piperidin]-1′-yl)pyrazin-2-yl)thio)-5-chloro-3-(2-methoxyethyl)quinazolin-4(31-1)-one] | < 3 | < 45
24 | C[C@@H]1OCC2(CCN(c3cnc(Sc4ccc5ncn(CC(N)=O)c(=O)c5c4Cl)cn3)CC2)[C@@H]1N [Example 97, 2-(6-((5-((3S,4S)-4-amino-3-methyl-2-oxa-8-azaspiro[4.5]decan-8-yl)pyrazin-2-yl)thio)-5-chloro-4-oxoquinazolin-3(4H)-yl)acetamide] | < 3 | < 45
25 | CC(C)(O)Cn1cnc2ccc(Sc3cnc(N4CCC5(CC4)Cc4ncsc4[C@@H]5N)cn3)c(Cl)c2c1=O [Example 146] | 3 to 100 | 45 to 1500
26 | Cn1c(N2CCOC(CN)C2)nc(N)c(Sc2cccc(Cl)c2Cl)c1=O (stereo not shown) [Example 198, 6-amino-2-(2-(aminomethyl)morpholino)-5-((2,3-dichlorophenyl)thio)-3-methylpyrimidin-4(3H)-one] | > 100 | > 1500
